Patent US20230263758A1, “COMPOSITIONS OF EDTA HAVING ACTIVITY AGAINST PLANKTONIC AND BIOFILM CELLS OF CLINICALLY RELEVANT PATHOGENS” (SterileCare Inc., priority 2022, published 2023)
Counter-ions that a name gives are not always drawn.

Experiments:
MRSA ON184 = experiment: Checkerboard titration, FICI; type: cell-based, Staphylococcus aureus
Procedure: (§1) A fourth composition and solution included tetrasodium EDTA with ethanol or chlorhexidine HCl. This fourth composition and solution were created using checkerboard titration methods using micro broth dilution in 96-well microtiter plates. The concentrations of antimicrobials used were based on previously determined MIC values. Briefly, 200 μL of two-fold dilutions of tetrasodium EDTA and ethanol or chlorhexidine HCl were prepared in MH or MH II broth with standardized cell suspension. […] Microtiter plates were incubated at 37° C. for 24 h, and the results were analyzed. Each test was performed in duplicate and included a growth control without adding any antimicrobials.

Candida albicans SK4b [1] = experiment: Checkerboard, FMCI; type: cell-based; conditions: C. albicans SK4b
Procedure: (§2) An assay was made using a minimum inhibitory concentration (MIC) and minimum bactericidal concentration (MBC) and minimum fungicidal concentration (MFC) determination. The MIC was determined by the micro broth dilution method in 96-well plates. Serial two-fold dilutions of tetrasodium EDTA (from 2% to 0.015%), ethanol (from 50% to 0.1%) and chlorhexidine HCl (from 100 μg/mL to 0.025 μg/mL) were prepared in MH broth with a final volume of 90 μL per well. A 10 μL containing 1×10^5 bacterial cells or 2×10^3 fungal cells were added to each well. The inoculated plates were covered with a lid, sealed with Parafilm, and incubated for 24 h at 37° C. with slight rocking on a tilting platform shaker. After incubation, the optical density at 600 nm (OD 600) of the cultures in each well was measured using an xMark™ Microplate Absorbance Spectrophotometer (Bio-Rad). […] MBCs and MFCs were determined by transferring 100 μL from each well with no apparent growth onto appropriate agar plates, followed by incubation for 24 h at 37° C.
as §1

Escherichia coli ON29 [2] = experiment: Checkerboard, FMCI; type: cell-based; conditions: E. coli ON29
Procedure: as §2, §1

Proteus mirabilis ON153 [3] = experiment: Checkerboard, FMCI; type: cell-based; conditions: P. mirabilis ON153
Procedure: as §2, §1

[4] = system: Pseudomonas aeruginosa SK1; experiment: Checkerboard, FMCI; type: cell-based; conditions: P. aeruginosa SK1
Procedure: as §2, §1

Serratia marcescens SK2 [5] = experiment: Checkerboard, FMCI; type: cell-based; conditions: S. marcescens SK2
Procedure: as §2, §1

[6] = system: Staphylococcus aureus ON89; experiment: Checkerboard, FMCI; type: cell-based; conditions: S. aureus ON89
Procedure: as §2, §1

[7] = system: Staphylococcus epidermidis ON170; experiment: Checkerboard, FMCI; type: cell-based; conditions: S. epidermidis ON170
Procedure: as §2, §1

[8] = system: Stenotrophomonas maltophilia ON17; experiment: Checkerboard, FMCI; type: cell-based; conditions: S. maltophilia ON17; EDTA + chlorhexidine HCl
Procedure: as §2, §1

[9] = system: Staphylococcus aureus ON89; experiment: Checkerboard FBEC index, 48-h biofilm; type: cell-based; conditions: S. aureus ON89 biofilm
[10] = system: 48-h old biofilms of bacterial and fungal test organisms; experiment: Rapid biofilm eradication, 2-h exposure; type: cell-based; conditions: each agent alone at its MBEC
Procedure: Determining rapid biofilm eradication by tetrasodium EDTA, ethanol, and chlorhexidine HCl alone and in combination was performed. After biofilm formation, control pegs (n=6) were removed and analyzed to determine the starting biofilm cell numbers via the drop dilution method. The 48-h old biofilms on the pegs were exposed to different concentrations of test antimicrobials, dissolved in an appropriate growth medium, for two h to evaluate their efficacy alone and in combination. […] Following treatment, pegs were washed twice with sterile PBS, and the biofilm cells were dislodged into recovery medium and enumerated as described above.
The method for rapid biofilm eradication ability of test antimicrobials alone and in combination against 48-h-old biofilms within two h exposure time included (1) choosing different concentrations of test antimicrobials to assess their potency in eradicating preformed biofilms of study organisms within two h. Then (2) the quantitative recovery from biofilms following exposure to the antimicrobial solutions for bacterial strains (FIGS. 4A-4C) and fungal strains (FIG. 5) was evaluated.

Candida albicans SK4b [11] = experiment: MIC, micro broth dilution; type: cell-based; conditions: C. albicans SK4b; agent alone
Procedure: as §2

Escherichia coli ON29 [12] = experiment: MIC, micro broth dilution; type: cell-based; conditions: E. coli ON29; agent alone
Procedure: as §2

Proteus mirabilis ON153 [13] = experiment: MIC, micro broth dilution; type: cell-based; conditions: P. mirabilis ON153; agent alone
Procedure: as §2

[14] = system: Pseudomonas aeruginosa SK1; experiment: MIC, micro broth dilution; type: cell-based; conditions: P. aeruginosa SK1; agent alone
Procedure: as §2

Serratia marcescens SK2 [15] = experiment: MIC, micro broth dilution; type: cell-based; conditions: S. marcescens SK2; agent alone
Procedure: as §2

[16] = system: Staphylococcus aureus ON89; experiment: MIC, micro broth dilution; type: cell-based; conditions: S. aureus ON89; agent alone
Procedure: as §2

[17] = system: Staphylococcus epidermidis ON170; experiment: MIC, micro broth dilution; type: cell-based; conditions: S. epidermidis ON170; agent alone
Procedure: as §2

[18] = system: Stenotrophomonas maltophilia ON17; experiment: MIC, micro broth dilution; type: cell-based; conditions: S. maltophilia ON17; agent alone
Procedure: as §2

C. albicans ON47 = experiment: MIC, micro broth dilution; type: cell-based, Candida albicans; conditions: agent alone
Procedure: as §2

S. epidermidis SK9 = experiment: MBC/MFC determination; type: cell-based, Staphylococcus epidermidis; conditions: agent alone
Procedure: as §2

[19] = EDTA + chlorhexidine HCl checkerboard

For `[H]/N=C(\N/C(=N/[H])NCCCCCCNC(=N)NC(=N)Nc1ccc(Cl)cc1)Nc1ccc(Cl)cc1` [Chlorhexidine HCl, chlorhexidine HCl, reference compound], the “Inhibitory concentration in combination” value (MRSA ON184; [19]) was 0.2 µg/mL, the “Microbicidal concentration in combination” value (shortened to “Microbicidal concentration”) (Candida albicans SK4b [1]; EDTA + chlorhexidine HCl) was 0.8 µg/mL and the “Microbicidal concentration” value (Escherichia coli ON29 [2]; EDTA + chlorhexidine HCl) was 0.2 µg/mL. The “Microbicidal concentration” value (Proteus mirabilis ON153 [3]; EDTA + chlorhexidine HCl) was 1.6 µg/mL, the “Microbicidal concentration” value ([4]; EDTA + chlorhexidine HCl) was 1.6 µg/mL and the “Microbicidal concentration” value (Serratia marcescens SK2 [5]; EDTA + chlorhexidine HCl) was 1.6 µg/mL. The “Microbicidal concentration” value ([6]; EDTA + chlorhexidine HCl) was 0.2 µg/mL, the “Microbicidal concentration” value ([7]; EDTA + chlorhexidine HCl) was 0.4 µg/mL and the “Microbicidal concentration” value [8] was 0.4 µg/mL. The “Biofilm eradication concentration in combination (FBEC)” value ([9]; EDTA + chlorhexidine HCl) was 3.125 µg/mL and the “Eradication of preformed biofilms after 2 h of exposure” value [10] was “failed to eradicate”.

For `O=C([O-])CN(CCN(CC(=O)[O-])CC(=O)[O-])CC(=O)[O-].[Na+].[Na+].[Na+].[Na+]` [EDTA, tetrasodium EDTA], the MIC (Candida albicans SK4b [11]) was 1 % w/v, the MIC (Escherichia coli ON29 [12]) was 0.5 % w/v and the MIC (Proteus mirabilis ON153 [13]) was 1 % w/v. The MIC [14] was 0.25 % w/v, the MIC (Serratia marcescens SK2 [15]) was 2 % w/v and the MIC [16] was 0.063 % w/v. The MIC [17] was 0.063 % w/v, the MIC [18] was 0.063 % w/v and the MIC (C. albicans ON47) was 1 % w/v. For the same compound, the “Inhibitory concentration in combination” value (MRSA ON184; [19]) was 0.008 % w/v, the “Inhibitory concentration in combination” value (MRSA ON184; EDTA + ethanol checkerboard) was 0.015 % w/v and the MBC/MFC (S. epidermidis SK9) was 0.5 % w/v. For the same compound, the “Microbicidal concentration” value (Candida albicans SK4b [1]; EDTA + ethanol) was 0.25 % w/v, the “Microbicidal concentration” value (Escherichia coli ON29 [2]; EDTA + chlorhexidine HCl) was 0.008 % w/v and the “Microbicidal concentration” value (Escherichia coli ON29 [2]; EDTA + ethanol) was 0.25 % w/v. The “Microbicidal concentration” value (Proteus mirabilis ON153 [3]; EDTA + ethanol) was 0.063 % w/v, the “Microbicidal concentration” value ([4]; EDTA + chlorhexidine HCl) was 0.031 % w/v and the “Microbicidal concentration” value ([4]; EDTA + ethanol) was 0.031 % w/v. The “Microbicidal concentration” value (Serratia marcescens SK2 [5]; EDTA + ethanol) was 0.25 % w/v, the “Microbicidal concentration” value ([6]; EDTA + chlorhexidine HCl) was 0.008 % w/v and the “Microbicidal concentration” value ([6]; EDTA + ethanol) was 0.25 % w/v. For the same compound, the “Microbicidal concentration” value ([7]; EDTA + chlorhexidine HCl) was 0.25 % w/v, the “Microbicidal concentration” value ([7]; EDTA + ethanol) was 0.031 % w/v and the “Microbicidal concentration” value [8] was 0.031 % w/v. The “Biofilm eradication concentration in combination (FBEC)” value ([9]; EDTA + ethanol) was 0.063 % w/v and the “Eradication of preformed biofilms after 2 h of exposure” value [10] was “failed to eradicate”.
